Experimental data taken from patent US20210046079A1, “COMBINATION THERAPY TO IMPROVE BRAIN FUNCTION OR PROMOTE NEUROGENESIS FOR TREATING NEURODEGENERATIVE CONDITIONS” (UNIVERSITY OF CENTRAL FLORIDA RESEARCH FOUNDATION, INC., priority 2016, published 2021).
Entries after “also recorded” stand apart in the source; their conditions may differ. Where a name gives a salt, the structure may show the parent alone.

Tests used:
[1] = tested on: 5xFAD mice; assay: Radial water maze test of 5xFAD mice; format: in vivo; details: for number of errors in the trial (memory), radial water maze: 5xFAD mice, compared to wild type
Text: B 6SJL-Tg(APPSwF1Lon,PSEN1*M146L*L286V)6799Vas/Mmjax transgenic (5xFAD) mice, which have 5 familial AD (FAD) mutant human genes, show pathological and behavioral signs of AD, including Aβdeposition at 2 months and progressive deficits in behavior. 5xFAD mice have successfully modeled behavior deficits seen in Alzheimer's disease in previous studies, and have been previously evaluated using the Morris water maze, open field test, and radial arm water maze. We purchased 2 males and 4 females heterozygous 5XFAD mice as breeders. We housed breeders in pairs of one male and 2 females. Gestation lasts 19-21 days. Pups (about 5-6 in each delivery) were weaned at (removed from breeding cage and separated) at 3 weeks of age. Tissue for genotyping was collected at the same time that ID numbers are applied. The genotyping was performed by PCR amplification of the SFAD gene. We used male 5xFAD mice (8months old) for this study.
The radial water maze test was performed using a maze with six arms (32 cm length and 19 cm width) radiated from the central circular region (36 cm diameter) placed in a circular pool (100 cm diameter). A clear round platform (9 cm diameter) was placed in one of the arms at 1.5 cm beneath the surface of the water, which was opacified with nontoxic white paint. The water was kept between 22-25° C. Surrounding the pool, a visual cue was placed at each end of the radial arms. Each session consists of four acquisition trials (T1-T4), followed by a 30-min delay interval and then a retention trial (T5). For each session, an escape platform was placed at the end of the goal arm, which was different between sessions. At the beginning of each trial, the mice were placed at the end of one of the remaining five non-goal arms. The mouse was positioned facing the wall, away from the center. Each trial lasts 60 seconds, during which an animal was allowed to swim in order to find the platform. The latency to locate the submerged platform and the number of entries to the non-goal arms were recorded as errors. […]

[2] = Kidney or liver toxicity; details: in vivo
[3] = tested on: neural stem cells; assay: Cell counting after immunohistochemistry of postmortem brains (BrdU, βIII-tublin, GFAP); format: in vivo, mice
Method: Once mice reach the criterion for the pre-treatment behavioral testings, posiphen (25 mg/kg) was injected (s.c.) once a day for 7 consecutive days; followed by a combination of posiphen (25 mg/kg) and NBI-18 (0, 3, 10 mg/kg) was, injected (s.c.) once a day, for seven consecutive days; followed by another series of posiphen (25 mg/kg) injections (s.c.) once a day, for seven consecutive days. On the final two days of the combination injections, an injection of BrdU (100 mg/kg) was administered separately (s.c.) once per day.

[4] = tested on: APP; details: AD model animals and patients; cited from earlier work
[5] = tested on: cholinesterase; details: Greig et al., U.S. Patent Pub. 2004/0024043 and 2004/0138282; cited from earlier work
[6] = tested on: βAPP; details: Greig et al., U.S. Patent Pub. 2004/0024043 and 2004/0138282; cited from earlier work

## CN1Cc2nc(N3CCNCC3)ncc2C1=O [NBI-18, 6-Methyl-2-(1-piperazinyl)-6,7-dihydro-5H-pyrrolo[3,4-d]-pyrimidin-5-one maleate]
[1]; NBI-18 3 mg/kg s.c. alone
  number of errors in the trial (memory), radial water maze: showed significant memory deficit compare to the wild type
[1]; AD model animals, summary statement, dose not stated
  memory function / performance in memory tasks: does not help to improve memory function
[2]
  dose range without detected kidney or liver toxicity: up to 1000 mg/kg
[3]; AD model mice, NBI-18 row: without Posiphen treatment, combination row: vs untreated AD model group
  new neurons formed / neurogenesis in the brain: does not reflect the increase of new neurons formed
[3]; brains of the animals used in the behavioral test
  dose at which the effect on stem cell proliferation is maxed out: 3 mg/kg
[3]; brains of the animals used in the behavioral test, maleate
  neural stem cell proliferation / number: significantly increases endogenous neural stem cells; also recorded: increased stem cell proliferation

## CN1CC[C@]2(C)c3cc(OC(=O)Nc4ccccc4)ccc3N(C)[C@H]12 [Posiphen, (+)-phenserine]
[4]
  APP: reduction of APP
[1]; Posiphen 25 mg/kg s.c. alone
  number of errors in the trial (memory), radial water maze: showed significant memory deficit compare to the wild type
[5]
  cholinesterase activity: lacks cholinesterase activity
[6]
  βAPP levels in the brain: dramatically reduces βAPP levels in the brain
